{
  "source": "patent US12539406B2",
  "about": "“Electrostimulation based drug delivery system and method for using thereof” (City University of Hong Kong, priority 2022, dated 2026)",
  "key": {"[1]": {"assay": "model drug release into agarose gel", "format": "physicochemical", "conditions": "PLGA II microneedle patch inserted into agarose gel, 5 days", "from_the_text": "The Rhodamine B-loaded PLGA II microneedle patch is then inserted into an agarose gel with a parafilm layer. The gel becomes red after the insertion of PLGA II microneedle patch loaded with Rhodamine B after 5 days while the control sample is still white. The insertion holes created by PLGA II with Rhodamine B show a higher florescence intensity (right panel in FIG. 4A) compared with that of the agar inserted by pure PLGA II microneedle patch (left panel in FIG. 4A)."}, "[2]": {"assay": "long-term drug release from PLGA microneedle patches in PBS", "format": "physicochemical", "conditions": "loaded in PLGA II microneedle patch, PBS solution at 37° C., after 15 days", "description": "In addition, the long-term drug release performance of the PLGA II microneedle patch is conducted by loading aspirin and ibuprofen, which are two commonly used drugs in anti-inflammation. Aspirin- and ibuprofen-loaded PLGA microneedle patches are immersed in PBS solution at 37° C. for one month. […] The aspirin releases more than 80% while ibuprofen releases around 70% after 15 days, indicating a promising drug delivery performance of the PLGA microneedles.\nCommercial aspirin (99%, Rhawn) or ibuprofen (98%, Macklin) were dissolved in chloroform and mixed with PLGA solution, where the mass of aspirin and ibuprofen are the weight ratio of 10% and 5% of PLGA polymers, respectively. Then the composite solution was added in a PDMS microneedle mold. The solutions in the mold were put in a vacuum over at 40° C. until no solvent remained. Finally, the solidified PLGA microneedles with mold were put at 100° C. heating stage for 2 h to remove residual solvent. After that, the obtained PLGA microneedles were heat pressed on the wireless electric stimulative electrodes, followed by depositing W (˜1000 nm) on the PLGA microneedle to yield the conductive microneedle electrodes."}},
  "data": [
    {"compound": "CCN(CC)c1ccc2c(-c3ccccc3C(=O)O)c3ccc(=[N+](CC)CC)cc-3oc2c1.[Cl-]", "note": "[Rhodamine B]", "values": [
      {"measurement": "release of model drug from microneedle tips (fluorescence)", "setting": "[1]", "value": "successfully released"}
    ]},
    {"compound": "CC(=O)Oc1ccccc1C(=O)O", "note": "[aspirin]", "values": [
      {"measurement": "drug release ratio", "setting": "[2]", "value": "more than 80%"}
    ]},
    {"compound": "CC(C)Cc1ccc(C(C)C(=O)O)cc1", "note": "(stereo not drawn) [ibuprofen]", "values": [
      {"measurement": "drug release ratio", "setting": "[2]", "value": "around 70%"}
    ]}
  ]
}
